Measured values as given in US20110152183A1, “DERIVATISED HYBRID PEPTIDES OF AMYLIN AND SALMON CALCITONIN” (Novo Nordisk A/S, priority 2008, published 2011).
Peptide text beside a SMILES is read from it.

Target: T1, Amylin 3(a) receptor (human calcitonin receptor (CTa) + RAMP-3) (Homo sapiens, UniProt O60896+P30988)
T1 construct: expressed in transfected cells; host or cells: BHK570 (baby hamster kidney) cells, stably transfected, with a CRE-luciferase reporter
Assay: Amylin luciferase assay (II), CRE luciferase reporter in BHK cells
Assay type: cell-based
Conditions: BHK Amylin 3(a)//CRE-luc cells, 4 hours incubation
From the text: It has previously been published (Poyner D R et al 2002, Pharmacological Reviews 54 (2) 233-246) that activation of Amylin receptors (coexpression of Calcitonin receptor and receptor activity modifying peptides RAMPs) by Amylin leads to an increase in the intracellular concentration of cAMP. Consequently, transcription is activated at promotors containing multiple copies of the cAMP response element (CRE). It is thus possible to measure Amylin activity by use of a CRE luciferase reporter gene introduced into BHK cells also expressing an Amylin receptor.
2. Construction of An Amylin 3(a)/CRE-Luc Cell Line
A BHK570 cell line stably transfected with the human calcitonin receptor (CTa) and a CRE-responsive luciferase reportergene. The cell line was further transfected with RAMP-3, using standard methods. This turns the Calcitonin receptor into an Amylin 3(a) receptor. Methotrexate, Neomycin, and Hygromycin are selection markers for luciferase, the Calcitonin receptor, and RAMP-3, respectively.
3. Amylin Luciferase Assay
To perform activity assays, BHK Amylin 3(a)//CRE-luc cells were seeded in white 96 well culture plates at a density of about 20.000 cells/well. […] Finally, luminescence was measured on a TopCounter (Packard) in SPC (single photon counting) mode.

T1 sequence (O60896 24-148): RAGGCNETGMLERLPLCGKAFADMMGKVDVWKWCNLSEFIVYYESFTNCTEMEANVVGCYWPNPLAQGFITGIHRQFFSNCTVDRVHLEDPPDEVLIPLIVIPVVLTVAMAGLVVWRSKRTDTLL
T1 sequence (P30988 25-474): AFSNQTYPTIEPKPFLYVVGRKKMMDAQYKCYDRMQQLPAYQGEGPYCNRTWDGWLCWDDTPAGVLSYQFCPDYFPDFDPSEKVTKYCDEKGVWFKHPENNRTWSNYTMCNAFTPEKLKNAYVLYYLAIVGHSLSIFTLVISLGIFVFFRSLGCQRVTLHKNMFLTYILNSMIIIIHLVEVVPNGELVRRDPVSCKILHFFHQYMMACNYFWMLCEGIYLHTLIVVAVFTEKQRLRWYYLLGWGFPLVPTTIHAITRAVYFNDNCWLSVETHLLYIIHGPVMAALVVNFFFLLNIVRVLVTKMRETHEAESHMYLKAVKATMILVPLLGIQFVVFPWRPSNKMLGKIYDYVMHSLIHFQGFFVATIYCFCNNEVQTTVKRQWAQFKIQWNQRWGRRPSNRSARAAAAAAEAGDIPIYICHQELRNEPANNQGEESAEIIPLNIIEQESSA

CC(C)C[C@H](NC(=O)[C@H](C)NC(=O)[C@@H]1CSSC[C@H](NC(=O)[C@@H](N)CCCCN)C(=O)N[C@@H](CC(N)=O)C(=O)N[C@@H]([C@@H](C)O)C(=O)N[C@@H](C)C(=O)N[C@@H]([C@@H](C)O)C(=O)N1)C(=O)NCC(=O)N[C@@H](CCCNC(=N)N)C(=O)N[C@@H](CC(C)C)C(=O)N[C@@H](CO)C(=O)N[C@@H](CCC(N)=O)C(=O)N[C@@H](CCC(=O)O)C(=O)N[C@@H](CC(C)C)C(=O)N[C@@H](Cc1c[nH]cn1)C(=O)N[C@@H](CCCNC(=N)N)C(=O)N[C@@H](CC(C)C)C(=O)N[C@@H](CCC(N)=O)C(=O)N[C@H](C(=O)N[C@@H](Cc1ccc(O)cc1)C(=O)N1CCC[C@H]1C(=O)N[C@@H](CCCNC(=N)N)C(=O)N[C@H](C(=O)N[C@@H](CC(N)=O)C(=O)N[C@H](C(=O)NCC(=O)N[C@@H](CO)C(=O)N[C@@H](CC(N)=O)C(=O)N[C@H](C(=O)N[C@@H](Cc1ccc(O)cc1)C(N)=O)[C@@H](C)O)[C@@H](C)O)[C@@H](C)O)[C@@H](C)O [Example 4, Amylin (1-8)-[Arg11,Arg18]sCT (9-27)-amylin (33-37)] (HELM PEPTIDE1{K.C.N.T.A.T.C.A.L.G.R.L.S.Q.E.L.H.R.L.Q.T.Y.P.R.T.N.T.G.S.N.T.Y.[am]}$PEPTIDE1,PEPTIDE1,2:R3-7:R3$$$V2.0; N-terminus assumed)
EC50: 3 pM
